Laboratory results reported in ChEMBL document CHEMBL6078652, “Discovery of Sporachelins by Genome Mining of a Micromonospora Strain” (J Nat Prod, 2024).
The source made the active and inactive calls. The calls are words filed in the database; no cut-off is given here.

Experiments:
LX-2 [1] = experiment: Antifibrotic activity against TGFbeta-1 induced human LX-2 cells assessed as inhibition of COL1A1 mRNA expression at 20 uM incubated for 24 hrs by qRT-PCR analysis relative to control; assay type: functional; set-up: scale not given: the % may be the effect or the level left
LX-2 [2] = experiment: Antifibrotic activity against TGFbeta-1 induced human LX-2 cells assessed as inhibition of ACTA2 mRNA expression at 20 uM incubated for 24 hrs by qRT-PCR analysis relative to control; assay type: functional; set-up: scale not given: the % may be the effect or the level left
LX-2 [3] = experiment: Antifibrotic activity against TGFbeta-1 induced human LX-2 cells assessed as inhibition of TGFB1 mRNA expression at 20 uM incubated for 24 hrs by qRT-PCR analysis relative to control; assay type: functional; set-up: scale not given: the % may be the effect or the level left
LX-2 [4] = experiment: Antifibrotic activity against TGFbeta-1 induced human LX-2 cells assessed as inhibition of COL1A1 mRNA expression at 5 uM incubated for 24 hrs by qRT-PCR analysis relative to control; assay type: functional; set-up: scale not given: the % may be the effect or the level left
Staphylococcus aureus [5] = experiment: Antibacterial activity against Staphylococcus aureus ATCC 29213 assessed as bacterial growth inhibition incubated for 16 hrs in presence of Muller-Hinton medium by broth microdilution method; assay type: functional, organism-based
Acinetobacter baumannii [6] = experiment: Antibacterial activity against Acinetobacter baumannii ATCC 19606 assessed as bacterial growth inhibition incubated for 16 hrs in presence of Muller-Hinton medium by broth microdilution method; assay type: functional, organism-based
NIH3T3 [7] = experiment: Antifibrotic activity against TGFbeta-1 induced mouse NIH3T3 cells assessed as decrease in Acta2 mRNA expression at 1 uM incubated for 24 hrs by qRT-PCR analysis relative to control; assay type: functional; set-up: scale not given: the % may be the effect or the level left
Enterococcus faecium = experiment: Antibacterial activity against Enterococcus faecium 310682 (VRE) assessed as bacterial growth inhibition incubated for 16 hrs in presence of brain heart infusion medium by broth microdilution method; assay type: functional, organism-based
LX-2 [8] = experiment: Antifibrotic activity against TGFbeta-1 induced human LX-2 cells assessed as inhibition of ACTA2 mRNA expression at 1 uM incubated for 24 hrs by qRT-PCR analysis relative to control; assay type: functional; set-up: scale not given: the % may be the effect or the level left
[9] = target: T1, Polyunsaturated fatty acid 5-lipoxygenase (Homo sapiens) (UniProt P09917); experiment: Inhibition of human 5-LO at 2 uM incubated for 15 mins in presence of ATP by measuring fluorescence intensity relative to control
T1 sequence (whole entry): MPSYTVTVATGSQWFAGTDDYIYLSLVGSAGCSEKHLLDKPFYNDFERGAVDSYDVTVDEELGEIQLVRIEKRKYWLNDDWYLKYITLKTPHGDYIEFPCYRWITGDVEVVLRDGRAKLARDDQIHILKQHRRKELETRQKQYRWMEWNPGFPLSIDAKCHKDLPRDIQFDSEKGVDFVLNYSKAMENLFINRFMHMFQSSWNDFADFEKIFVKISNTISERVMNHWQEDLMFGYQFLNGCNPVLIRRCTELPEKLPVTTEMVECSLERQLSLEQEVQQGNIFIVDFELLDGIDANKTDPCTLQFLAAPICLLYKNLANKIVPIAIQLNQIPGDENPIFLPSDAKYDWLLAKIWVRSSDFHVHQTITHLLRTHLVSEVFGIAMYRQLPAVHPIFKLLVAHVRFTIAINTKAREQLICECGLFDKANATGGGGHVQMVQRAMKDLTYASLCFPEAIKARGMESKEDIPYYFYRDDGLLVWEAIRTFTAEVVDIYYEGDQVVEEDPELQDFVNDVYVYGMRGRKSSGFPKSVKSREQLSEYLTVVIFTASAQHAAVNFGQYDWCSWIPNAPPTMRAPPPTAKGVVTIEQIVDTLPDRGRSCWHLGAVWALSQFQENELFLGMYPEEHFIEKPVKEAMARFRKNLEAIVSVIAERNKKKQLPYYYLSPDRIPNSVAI

Pseudomonas aeruginosa [10] = experiment: Antibacterial activity against Pseudomonas aeruginosa ATCC 27853 assessed as bacterial growth inhibition incubated for 16 hrs in presence of Muller-Hinton medium by broth microdilution method; assay type: functional, organism-based
Pseudomonas aeruginosa [11] = experiment: Antibacterial activity against Pseudomonas aeruginosa 2774 assessed as bacterial growth inhibition incubated for 16 hrs in presence of Muller-Hinton medium by broth microdilution method; assay type: functional, organism-based
Acinetobacter baumannii [12] = experiment: Antibacterial activity against Acinetobacter baumannii 2799 assessed as bacterial growth inhibition incubated for 16 hrs in presence of Muller-Hinton medium by broth microdilution method; assay type: functional, organism-based
NIH3T3 [13] = experiment: Antifibrotic activity against TGFbeta-1 induced mouse NIH3T3 cells assessed as decrease in COL1A1 mRNA expression at 5 uM incubated for 24 hrs by qRT-PCR analysis relative to control; assay type: functional; set-up: scale not given: the % may be the effect or the level left
LX-2 [14] = experiment: Antifibrotic activity against TGFbeta-1 induced human LX-2 cells assessed as inhibition of COL1A1 mRNA expression incubated for 24 hrs by qRT-PCR analysis; assay type: functional, cell-based; settings: dose 1-5 µM
LX-2 [15] = experiment: Cytotoxicity against human LX-2 cells assessed as reduction in cell viability at 200 uM incubated for 24 hrs by CCK-8 assay; assay type: toxicity, cell-based; settings: lx-2, 24 h
NIH3T3 [16] = experiment: Antifibrotic activity against TGFbeta-1 induced mouse NIH3T3 cells assessed as decrease in COL1A1 mRNA expression at 1 uM incubated for 24 hrs by qRT-PCR analysis relative to control; assay type: functional; set-up: scale not given: the % may be the effect or the level left
LX-2 [17] = experiment: Antifibrotic activity against TGFbeta-1 induced human LX-2 cells assessed as inhibition of TGFB1 mRNA expression at 5 uM incubated for 24 hrs by qRT-PCR analysis relative to control; assay type: functional; set-up: scale not given: the % may be the effect or the level left
LX-2 [18] = experiment: Antifibrotic activity against TGFbeta-1 induced human LX-2 cells assessed as inhibition of ACTA2 mRNA expression incubated for 24 hrs by qRT-PCR analysis; assay type: functional, cell-based; settings: dose 1-5 µM
Enterococcus faecalis = experiment: Antibacterial activity against Enterococcus faecalis ATCC 33186 assessed as bacterial growth inhibition incubated for 16 hrs in presence of brain heart infusion medium by broth microdilution method; assay type: functional, organism-based
Escherichia coli [19] = experiment: Antibacterial activity against Escherichia coli ATCC 35218 assessed as bacterial growth inhibition incubated for 16 hrs in presence of Muller-Hinton medium by broth microdilution method; assay type: functional, organism-based
Klebsiella pneumoniae [20] = experiment: Antibacterial activity against Klebsiella pneumoniae ATCC 700603 assessed as bacterial growth inhibition incubated for 16 hrs in presence of Muller-Hinton medium by broth microdilution method; assay type: functional, organism-based
Klebsiella pneumoniae [21] = experiment: Antibacterial activity against Klebsiella pneumoniae ATCC 10031 assessed as bacterial growth inhibition incubated for 16 hrs in presence of Muller-Hinton medium by broth microdilution method; assay type: functional, organism-based
Bacillus subtilis = experiment: Antibacterial activity against Bacillus subtilis CPCC 100029 assessed as bacterial growth inhibition incubated for 16 hrs in presence of Muller-Hinton medium by broth microdilution method; assay type: functional, organism-based
NIH3T3 [22] = experiment: Antifibrotic activity against TGFbeta-1 induced mouse NIH3T3 cells assessed as decrease in Acta2 mRNA expression at 5 uM incubated for 24 hrs by qRT-PCR analysis relative to control; assay type: functional; set-up: scale not given: the % may be the effect or the level left
LX-2 [23] = experiment: Antifibrotic activity against TGFbeta-1 induced human LX-2 cells assessed as inhibition of TGFB1 mRNA expression at 1 uM incubated for 24 hrs by qRT-PCR analysis relative to control; assay type: functional; set-up: scale not given: the % may be the effect or the level left
LX-2 [24] = experiment: Antifibrotic activity against TGFbeta-1 induced human LX-2 cells assessed as inhibition of ACTA2 mRNA expression at 5 uM incubated for 24 hrs by qRT-PCR analysis relative to control; assay type: functional; set-up: scale not given: the % may be the effect or the level left
Escherichia coli [25] = experiment: Antibacterial activity against Escherichia coli ATCC 25922 assessed as bacterial growth inhibition incubated for 16 hrs in presence of Muller-Hinton medium by broth microdilution method; assay type: functional, organism-based
Staphylococcus aureus [26] = experiment: Antibacterial activity against Staphylococcus aureus ATCC 33591 assessed as bacterial growth inhibition incubated for 16 hrs in presence of Muller-Hinton medium by broth microdilution method; assay type: functional, organism-based
LX-2 [27] = experiment: Antifibrotic activity against TGFbeta-1 induced human LX-2 cells assessed as inhibition of TGFB1 mRNA expression incubated for 24 hrs by qRT-PCR analysis; assay type: functional, cell-based; settings: dose 1-5 µM
LX-2 [28] = experiment: Antifibrotic activity against TGFbeta-1 induced human LX-2 cells assessed as inhibition of COL1A1 mRNA expression at 1 uM incubated for 24 hrs by qRT-PCR analysis relative to control; assay type: functional; set-up: scale not given: the % may be the effect or the level left

O=C(O[C@@H]1Cc2c(O)cc(O)cc2O[C@@H]1c1cc(O)c(O)c(O)c1)c1cc(O)c(O)c(O)c1 [EPIGALOCATECHIN GALLATE]
Activity (LX-2 [1]): 89% | Activity (LX-2 [2]): 62% | Activity (LX-2 [3]): 88%

O=C(Cc1ccccc1)OC[C@H](CCCCNC(=O)c1cccc(O)c1O)NC(=O)c1cccc(O)c1O
Activity (LX-2 [4]): 87% | Activity (Staphylococcus aureus [5]): inactive | Activity (Acinetobacter baumannii [6]): inactive | Activity (NIH3T3 [7]): 94% | Activity (Enterococcus faecium): inactive | Activity (LX-2 [8]): 82% | inhibition [9]: 72% | Activity (Pseudomonas aeruginosa [10]): inactive | Activity (Pseudomonas aeruginosa [11]): inactive | Activity (Acinetobacter baumannii [12]): inactive | Activity (NIH3T3 [13]): 81% | Activity (LX-2 [14]): Dose-dependent-effect | Activity (LX-2 [15]): Non-toxic | Activity (NIH3T3 [16]): 78% | Activity (LX-2 [17]): 69% | Activity (LX-2 [18]): Dose-dependent-effect | Activity (Enterococcus faecalis): inactive | Activity (Escherichia coli [19]): inactive | Activity (Klebsiella pneumoniae [20]): inactive | Activity (Klebsiella pneumoniae [21]): inactive | Activity (Bacillus subtilis): inactive | Activity (NIH3T3 [22]): 124% | Activity (LX-2 [23]): 46% | Activity (LX-2 [24]): 139% | Activity (Escherichia coli [25]): inactive | Activity (Staphylococcus aureus [26]): inactive | Activity (LX-2 [27]): Dose-dependent-effect | Activity (LX-2 [28]): 46%
